Source: US12129237B2, “Substituted diaminocarboxamide and diaminocarbonitrile pyrimidines, compositions thereof, and methods of treatment therewith” (SIGNAL PHARMACEUTICALS, LLC, priority 2011, dated 2024)

Each compound was assayed against T1, JNK1 (Homo sapiens, UniProt P45983) (assay: JNK1 biochemical assays (one or more of: time resolved fluorescence, Z'-LYTE Cascade, radioactive)). Settings: Table 2; JNK1 IC50 activity level; read-out: Act. Level.
T1 construct: purchased Carna Biosciences
T1 sequence (P45983 whole entry): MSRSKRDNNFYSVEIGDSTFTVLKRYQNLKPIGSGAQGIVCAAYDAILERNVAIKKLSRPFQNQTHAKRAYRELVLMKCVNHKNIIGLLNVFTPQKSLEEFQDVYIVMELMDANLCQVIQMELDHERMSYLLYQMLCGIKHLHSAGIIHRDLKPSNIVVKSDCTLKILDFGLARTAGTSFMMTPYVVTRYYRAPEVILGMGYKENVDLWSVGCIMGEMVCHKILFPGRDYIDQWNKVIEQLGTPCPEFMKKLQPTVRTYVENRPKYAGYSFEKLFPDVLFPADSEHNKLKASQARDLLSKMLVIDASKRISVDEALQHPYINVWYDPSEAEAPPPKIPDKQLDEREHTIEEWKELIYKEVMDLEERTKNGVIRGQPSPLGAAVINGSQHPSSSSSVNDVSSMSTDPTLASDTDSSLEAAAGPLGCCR

IC50 [nM] | Structure (SMILES)
200 to 800 | NC(=O)c1cnc(NCc2ccc(F)c(F)c2)nc1Nc1ccccc1 [Example B-70, 2-(3,4-difluorobenzylamino)-4-(phenylamino)pyrimidine-5-carboxamide]
< 200 | CC(C)Nc1nc(N[C@H]2CCc3ncccc3C2)ncc1C(N)=O [Example B-80, (S)-4-(isopropylamino)-2-(5,6,7,8-tetrahydroquinolin-6-ylamino)pyrimidine-5-carboxamide]
< 200 | NC(=O)c1cnc(N[C@@H]2CCc3cnccc3C2)nc1N[C@@H]1CCC[C@H](O)C1 [Example B-96, 4-((1R,3S)-3-hydroxycyclohexylamino)-2-((R)-5,6,7,8-tetrahydroisoquinolin-6-ylamino)pyrimidine-5-carboxamide]

Same assay, conditions: Table 3; JNK1 IC50 activity level; read-out: Act. Level

IC50 [nM] | Structure (SMILES)
200 to 800 | CO[C@H]1CC[C@](C)(Nc2ncc(C#N)c(N[C@@H]3CCC[C@H](O)C3)n2)CC1 [Example C-57, 4-((1R,3S)-3-hydroxycyclohexylamino)-2-((1r,4R)-4-methoxy-1-methylcyclohexylamino) pyrimidine-5-carbonitrile]
< 200 | N#Cc1cnc(N[C@H]2CC[C@H](OC(F)F)CC2)nc1N[C@@H]1CCCC[C@H](O)C1 [Example C-32, 2-((1r,4R)-4-(difluoromethoxy)cyclohexylamino)-4-((1R,3S)-3-hydroxycycloheptylamino) pyrimidine-5-carbonitrile]
800 to 1000 | CO[C@H]1CC[C@H](Nc2ncc(C#N)c(NC(C)C)n2)CC1 [Example C-17, 4-(isopropylamino)-2-((1r,4r)-4-methoxycyclohexylamino) pyrimidine-5-carbonitrile]
200 to 800 | CO[C@H]1CC[C@H](Nc2ncc(C#N)c(N[C@@H]3CCCC[C@](C)(O)C3)n2)CC1 [Example C-50, 4-((1R,3S)-3-hydroxy-3-methylcycloheptylamino)-2-((1r,4R)-4-methoxycyclohexylamino) pyrimidine-5-carbonitrile]
< 200 | [2H]C([2H])([2H])O[C@H]1CC[C@H](Nc2ncc(C#N)c(N[C@@H]3CCC[C@](C)(O)C3)n2)CC1 [Example C-56, 4-((1R,3S)-3-hydroxy-3-methylcyclohexylamino)-2-((1r,4R)-4-((^2H3)methyloxy)cyclohexyl-amino)pyrimidine-5-carbonitrile]

Same assay, conditions: one or more of the JNK1 biochemical assays; read-out: Act. Level (JNK1 IC50 activity level)

IC50 [nM] | Structure (SMILES)
< 200 | NC(=O)c1cnc(NC2CC2)nc1N[C@@H]1CCC[C@H](O)C1 [Example 379, 2-(cyclopropylamino)-4-((1R,3S)-3-hydroxycyclohexylamino)pyrimidine-5-carboxamide]
< 200 | CC(C)(Nc1nc(N[C@H]2CCCOC2)ncc1C(N)=O)C1CC1 [Example 468, (S)-4-(2-cyclopropylpropan-2-ylamino)-2-(tetrahydro-2H-pyran-3-ylamino)pyrimidine-5-carboxamide]
< 200 | CC1(Nc2nc(N[C@H]3CC[C@H](OCC(F)(F)F)CC3)ncc2C(N)=O)CCC1 [Example 415, 4-(1-methylcyclobutylamino)-2-((1r,4r)-4-(2,2,2-trifluoroethoxy)cyclohexylamino)pyrimidine-5-carboxamide]
< 200 | CCO[C@H]1CC[C@H](Nc2ncc(C(N)=O)c(NC(C)(C)C)n2)CC1 [Example 211, 4-(tert-butylamino)-2-((1r,4r)-4-ethoxycyclohexylamino)pyrimidine-5-carboxamide]
< 200 | COCC(C)(C)Nc1nc(N[C@H]2CC[C@H](O)CC2)ncc1C(N)=O [Example 271, 2-((1r,4r)-4-hydroxycyclohexylamino)-4-(1-methoxy-2-methylpropan-2-ylamino)pyrimidine-5-carboxamide]
< 200 | NC(=O)c1cnc(NC2CCOCC2)nc1NC1CCC1 [Example 435, 4-(cyclobutylamino)-2-(tetrahydro-2H-pyran-4-ylamino)pyrimidine-5-carboxamide]
< 200 | C[C@@H](Nc1nc(N[C@H]2CC[C@H](C(=O)N(C)C)CC2)ncc1C(N)=O)C1CC1 [Example 425, 4-((R)-1-cyclopropylethylamino)-2-((1r,4R)-4-(dimethylcarbamoyl)cyclohexylamino)pyrimidine-5-carboxamide]
< 200 | C[C@@H](Nc1nc(NC23CCC(O)(CC2)CC3)ncc1C(N)=O)C1CC1 [Example 408, (R)-4-(1-cyclopropylethylamino)-2-(4-hydroxybicyclo[2.2.2]octan-1-ylamino)pyrimidine-5-carboxamide]
< 200 | CCO[C@H]1CC[C@H](Nc2ncc(C(N)=O)c(NC(C)(C)CO)n2)CC1 [Example 309, 2-((1r,4r)-4-ethoxycyclohexylamino)-4-(1-hydroxy-2-methylpropan-2-ylamino)pyrimidine-5-carboxamide]
< 200 | CCO[C@H]1CC[C@H](Nc2ncc(C(N)=O)c(NC3(C)CCCCC3)n2)CC1 [Example 359, 2-((1r,4r)-4-ethoxycyclohexylamino)-4-(1-methylcyclohexylamino)pyrimidine-5-carboxamide]
< 200 | NC(=O)c1cnc(N[C@H]2CC[C@H](OC3CC3)CC2)nc1NC12CCC(C1)C2 [Example 487, 4-(bicyclo[2.1.1]hexan-1-ylamino)-2-((1r,4r)-4-cyclopropoxycyclohexylamino)pyrimidine-5-carboxamide]

Same assay, conditions: tested in one or more of the JNK1 biochemical assays; read-out: Act. Level (JNK1 biochemical assay IC50 activity level)

IC50 [nM] | Structure (SMILES)
< 200 | CO[C@H]1CC[C@H](Nc2ncc(C(N)=O)c(N[C@H]3CC[C@H](CO)C3)n2)CC1 [Example A-98, 4-((1S,3S)-3-(hydroxymethyl)cyclopentylamino)-2-((1r,4S)-4-methoxycyclohexylamino)pyrimidine-5-carboxamide]
< 200 | CO[C@H]1CC[C@H](Nc2ncc(C(N)=O)c(N[C@@H]3CCCNC3)n2)CC1 [Example A-47, 2-((1r,4R)-4-methoxycyclohexylamino)-4-((R)-piperidin-3-ylamino)pyrimidine-5-carboxamide]
< 200 | CO[C@H]1CC[C@H](Nc2ncc(C(N)=O)c(NC3CCC3)n2)CC1 [Example A-164, 4-(cyclobutylamino)-2-((1r,4r)-4-methoxycyclohexylamino)pyrimidine-5-carboxamide]
< 200 | CCO[C@H]1CC[C@H](Nc2ncc(C(N)=O)c(N[C@H]3CCCOC3)n2)CC1 [Example A-60, 2-((1r,4S)-4-ethoxycyclohexylamino)-4-((S)-tetrahydro-2H-pyran-3-ylamino)pyrimidine-5-carboxamide]
< 200 | CO[C@H]1CC[C@@H](Nc2nc(N[C@@H]3CC[C@@H](CO)C3)ncc2C(N)=O)CC1 [Example A-97, 2-((1R,3R)-3-(hydroxymethyl)cyclopentylamino)-4-((1s,4S)-4-methoxycyclohexylamino)pyrimidine-5-carboxamide]
< 200 | NC(=O)c1cnc(NC2CCOCC2)nc1N[C@@H]1CCC[C@H]1O [Example A-7, 4-((1R,2R)-2-hydroxycyclopentylamino)-2-(tetrahydro-2H-pyran-4-ylamino)pyrimidine-5-carboxamide]
< 200 | CCC(=O)N[C@H]1CC[C@@H](Nc2nc(N[C@@H](C)C3CCCCC3)ncc2C(N)=O)CC1 [Example A-124, 2-((S)-1-cyclohexylethylamino)-4-((1s,4R)-4-propionamidocyclohexylamino)pyrimidine-5-carboxamide]
< 200 | NC(=O)c1cnc(NC23CCC(CC2)CC3)nc1N[C@@H]1CCC[C@H](O)C1 [Example A-159, 2-(bicyclo[2.2.2]octan-1-ylamino)-4-((1R,3S)-3-hydroxycyclohexylamino)pyrimidine-5-carboxamide]
